Assay [1] concerns NHLF cells and diseased IPF cells (primary human lung fibroblasts) in fibrin scaffold. In words: Microscale cell-mediated fibrinolysis assay (ATPS-printed fibroblast-laden fibrin scaffolds, brightfield pixel intensity). It counts as cell-based. Particulars: for rate of cell-mediated fibrinolysis (50% degradation time): 100 μM hydrogen peroxide; for impact on fibroblast-mediated fibrinolysis: 400 μM pirfenidone, 0.4 μM nintedanib, 20 μM diethyl-pythiDC, NHLF and IPF cells. On the procedure: A stock solution of DEX (20% w/w dextran T500; Sigma) was prepared in phosphate buffered saline (PBS) on a rocker overnight. A stock solution of PEG (6% w/w, 35 k MW; Sigma) was prepared in fully supplemented culture media with 10% deionized water to balance osmolality. Both stock solutions were passed through a 0.22 um sterilizing syringe filter before storage. PEG working solutions were stored for up to 2 weeks at 4° C. Thrombin (Human Alpha Thrombin; Enzyme Research Labs) was also added to the PEG solution at a concentration of 0.1 U/mL immediately preceding experiments. Fibrinogen-DEX solutions were prepared by diluting fibrinogen stock solution (human fibrinogen 3; Enzyme Research Labs) to a final concentration of 4 mg/mL in a sterile solution of 4% 10×DMEM, 15% DEX stock solution (to a final concentration of 3% dextran), and 50% cell suspension in growth media. For all experiments excluding cell concentration evaluation, the cell suspension was diluted for 1000 cells per microliter in the final fibrinogen-DEX solution.
Normal human lung fibroblasts (NHLF lot #0000580583; […] Cells were passaged at 80-90% confluence and were sub-cultured in 1:3 ratios by trypsinization. When at the desired confluence, cells were washed with PBS and 0.05% trypsin solution was added to the flask. Cells were incubated for 2 min, diluted with fibroblast growth media, and then harvested and centrifuged (200× g, 5 min) in a conical tube. The supernatant was aspirated and the cell pellet was re-suspended in serum-free culture media. When used in fibrin degradation experiments, cells were re-suspended at 2× the final desired concentration (1000 cells/ul unless otherwise indicated). All experiments were conducted with cells at or below passage 12. In all experiments, media was changed every 48 hours and any media additives (plasminogen, TGF-β1, drugs, etc.) were included.
Working solutions of PEG with 0.1 U/mL of thrombin were warmed to 37° C. and pipetted into a 96-well plate. For production of droplets, fibrinogen-DEX solutions with cell suspension were maintained at 37° C. and pipetted directly into the PEG-thrombin media using either a manual pipette or a semi-automated 96-channel pipette (Viaflo-96; Integra). All assays utilized a volume of 1 μl unless otherwise noted. Following dispensing of the DEX phase, the plates were placed in an incubator at 37° C. for 30 min to allow the thrombin to enzymatically crosslink the fibrinogen into a fibrin matrix (FIG. 1A). The PEG-enriched media was then washed four times by removing, then replacing half of the media with PEG-free media. When applicable, the final media addition was supplemented with stimuli as detailed in Example 5 below. For the duration of each experiment, assay plates were imaged every 2 hours at 4× with an automated cell culture monitoring system (Incucyte S3; Essen Biosystems). After one day of culture, plasminogen (50 μg/mL) (Human Glu-Plasminogen; Enzyme Research Labs) was added as a 10× concentrated solution to each well in order to initiate assay degradation (FIG. 1B), unless otherwise noted for specific conditions. Fresh plasminogen was included with each subsequent media addition. Positive controls with active plasmin (1 U/ml) (Human Plasmin; Enzyme Research Labs) and negative controls without plasminogen were included in each experiment. As cells activated plasminogen, the fibrin scaffold progressively degraded as illustrated in FIG. 1C.
After each experiment, brightfield images for every time point were downloaded in jpeg format from the automated cell culture monitoring system. Python's OpenCV library was implemented for the masking approach illustrated in FIG. 2A. First, a threshold was set at 50% of the maximum intensity (128 for 8-bit integer pixel values) in order to isolate the darker pixels of semi-opaque fibrin hydrogel from the background of the image. A closing morphological filter with a 25×25 kernel was then applied to each mask in order to remove noise. […]

The test system of assay [2] is human primary lung fibroblasts (NHLF, IPF) in fibrin micro-scaffolds. In words: Contracting scar-in-a-drop fibroplasia assay (final projected area of cell-ECM spheroids). Format: cell-based. On the procedure:
Human primary lung fibroblasts were used in all experiments presented in this paper. Unless otherwise noted, experiments utilized normal human lung fibroblasts (NHLF B lot #0000580583; Lonza) from a person with a history of smoking. For experiments evaluating donor variability, the following cells were utilized: NHLF A (NHLF lot #0000608197; Lonza) from a person, IPF A (IPF lot #0000627840; Lonza) from a person, and IPF B (IPF lot #6F5002; Lonza) from a person. All cells were cultured in fibroblast growth media (FGM; Lonza). Cells were passaged at 80-90% confluence and were sub-cultured in 1:3 ratios by trypsinization. When at the desired confluence, cells were washed with PBS and 0.05% trypsin solution was added to the flask. Cells were incubated for 2 min, and then harvested and centrifuged ([…], 5 min) in a conical tube. The supernatant was aspirated and the cell pellet was re-suspended in FBS-free culture media. When used in fibrin degradation experiments, cells were re-suspended at 2× the final desired concentration (2500 cells/ul unless otherwise indicated). To promote collagen production and contraction in addition to fibrin degradation, serum (bovine or human) were added at 2% or higher up to about 10%. Higher cell densities (about 2500 cells/ul and higher up to about 10,000 cells/ul) also promote collagen production. All experiments were conducted with cells at or below passage 8 except for high passage experiments conducted at passage 12. In all experiments, media was changed every 48 hours and any media additives (plasminogen, TGF-β1, drugs, etc.,) were included.
ATPS printing of fibrin micro-scaffolds has previously described above. Briefly, working solutions of PEG with 0.1 U/mL of thrombin were warmed to 37° C. and pipetted into a 96-well plate. For production of droplets, fibrinogen-DEX solutions with cell suspension were maintained at 37° C. and 4 μl per assay (unless otherwise noted) was pipetted directly into the PEG-thrombin media using a semi-automated repeater pipette (Repeater E3X; Eppendorf). Following dispensing of the DEX phase, the plates were placed in an ambient air incubator at 37° C. for 30 min to allow the thrombin to enzymatically crosslink the fibrinogen into a fibrin matrix (FIG. 6A). The PEG-enriched media was removed using a 12-channel micropipette and replaced with 100 μl of fully supplemented media in each well. When applicable, this media addition was supplemented with stimuli as detailed in example 17 below. For the duration of each experiment, assay plates were imaged every 2 hours at 4× with an automated cell culture monitoring system (Incucyte S3; Sartorius). As the assay proceeded, the fibroblasts progressively remodeled the fibrin scaffold as illustrated in FIG. 6C.
After each experiment, the final projected areas of the cell-ECM spheroids were determined from brightfield images taken at the final time point using a benchtop imaging system (2× objective; EVOS M7000; ThermoFisher). These images were then segmented through a process of pixel classification, thresholding, and morphological filtering in order to isolate the cell-ECM construct area from the background.
Pixel classification implemented Ilastic, a freely available image classification tool developed by the European Molecular Biology Laboratory. Ilastik's pixel classification utility implements a random forest classifier for quick and robust segmentation. In order to train the classifier, 10 characteristic images were selected to include different stages of ECM remodeling. In this step, each individual pixel is assigned a probability for belonging to layers for the background or the cell-ECM construct. Ilastik enables interactive training of the random forest classifier via user annotations of the training images. […]

The mark [3] stands for this setting: TGF-β1 treated (2 ng/mL), NHLF and IPF cells, 10 μM TM5275, 500 μM pirfenidone.

For the molecule `OO` [hydrogen peroxide], the “rate of cell-mediated fibrinolysis (50% degradation time)” value in assay [1] (conditions that included TGF-β1 (2 ng/ml)) is “no significant difference”; in assay [1] (no TGF-β1) it was “highly significant decreases in the rates of fibrinolysis”.
Regarding `CCOC(=O)c1ccc(-c2ncc(C(=O)OCC)s2)nc1` [diethyl-pythiDC], the “impact on fibroblast-mediated fibrinolysis” value (“impact” for short) in assay [1] is “significantly (P<0.05) delayed fibrinolysis”.
Turning to `Cc1ccc(=O)n(-c2ccccc2)c1` [pirfenidone], in assay [1], the “impact” value was “did not show a significant impact on fibrinolysis”. Besides, the “final area of spheroids” value in assay [2] (setting [3]) was “significant decrease in final area”.
In the case of `COC(=O)c1ccc2c(c1)NC(=O)/C2=C(\Nc1ccc(N(C)C(=O)CN2CCN(C)CC2)cc1)c1ccccc1` [nintedanib], in assay [1], the “impact” value was “did not show a significant impact on fibrinolysis”. Besides, in assay [2] (all conditions (with and without TGF-β1; NHLF and IPF cells), 1 μM nintedanib), the “final area of spheroids” value is listed as “significant decreases in final area for all conditions”. The “final projected area, fibroblast donor variability” value in assay [2] (nintedanib, 2 normal and 2 IPF donors, one IPF donor not statistically significant (p<0.3)) is given as “reduced the final projected area”.
In the case of `O=C(COCC(=O)N1CCN(C(c2ccccc2)c2ccccc2)CC1)Nc1ccc(Cl)cc1C(=O)O` [TM5275], the “final area of spheroids” value in assay [2] (setting [3]) was “decreased the spheroid area”. For the same molecule, the spheroid area result in assay [2] (conditions that omitted TGF-β1, 10 μM TM5275) was “not in conditions that omitted TGF-β1”.

B1: plasmin: Human Plasmin (Enzyme Research Labs), positive control for fibrin degradation (protein, UniProt P00747 20-580; P00747 581-810, looked up)
Plasmin heavy chain A: EPLDDYVNTQGASLFSVTKKQLGAGSIEECAAKCEEDEEFTCRAFQYHSKEQQCVIMAENRKSSIIIRMRDVVLFEKKVYLSECKTGNGKNYRGTMSKTKNGITCQKWSSTSPHRPRFSPATHPSEGLEENYCRNPDNDPQGPWCYTTDPEKRYDYCDILECEEECMHCSGENYDGKISKTMSGLECQAWDSQSPHAHGYIPSKFPNKNLKKNYCRNPDRELRPWCFTTDPNKRWELCDIPRCTTPPPSSGPTYQCLKGTGENYRGNVAVTVSGHTCQHWSAQTPHTHNRTPENFPCKNLDENYCRNPDGKRAPWCHTTNSQVRWEYCKIPSCDSSPVSTEQLAPTAPPELTPVVQDCYHGDGQSYRGTSSTTTTGKKCQSWSSMTPHRHQKTPENYPNAGLTMNYCRNPDADKGPWCFTTDPSVRWEYCNLKKCSGTEASVVAPPPVVLLPDVETPSEEDCMFGNGKGYRGKRATTVTGTPCQDWAAQEPHRHSIFTPETNPRAGLEKNYCRNPDGDVGGPWCYTTNPRKLYDYCDVPQCAAPSFDCGKPQVEPKKCPGR
Plasmin light chain B: VVGGCVAHPHSWPWQVSLRTRFGMHFCGGTLISPEWVLTAAHCLEKSPRPSSYKVILGAHQEVNLEPHVQEIEVSRLFLEPTRKDIALLKLSSPAVITDKVIPACLPSPNYVVADRTECFITGWGETQGTFGAGLLKEAQLPVIENKVCNRYEFLNGRVQSTELCAGHLAGGTDSCQGDSGGPLVCFEKDKYILQGVTSWGLGCARPNKPGVYVRVSRFVTWIEGVMRNN
modifications: Plasmin
notes: Human Plasmin (Enzyme Research Labs), positive control for fibrin degradation
For B1, in assay [1] (exogenous plasmin 1 U/ml), the “matrix degradation, positive control” value was “rapid matrix degradation”.

The values are drawn from patent publication US20220196635A1, “Fibrosis Assay” (Georgia Tech Research Corporation, priority 2020, published 2022).
